pKi: −log10 of the molar value.
experiment: Inhibitory activity against clostridium histolyticum collagenase

Compound	pKi
CC(C(=O)NO)N(Cc1ccccc1[N+](=O)[O-])S(=O)(=O)c1ccc2ccccc2c1 (configuration not stated) [N-Hydroxy-2-[(naphthalene-2-sulfonyl)-(2-nitro-benzyl)-amino]-propionamide]	8.10
CC(C(=O)NO)N(Cc1ccccc1[N+](=O)[O-])S(C)(=O)=O (configuration not stated) [N-Hydroxy-2-[methanesulfonyl-(2-nitro-benzyl)-amino]-propionamide]	7.07
CC(C(=O)NO)N(Cc1ccccc1[N+](=O)[O-])C(=O)NS(=O)(=O)c1ccccc1 (configuration not stated) [N-hydroxy-2-((2-nitrobenzyl){[(phenylsulfonyl)amino]carbonyl}amino)propanamide]	7.92
Cc1ccccc1S(=O)(=O)NC(=O)N(Cc1ccccc1[N+](=O)[O-])C(C)C(=O)NO (configuration not stated) [N-hydroxy-2-[({[(2-methylphenyl)sulfonyl]amino}carbonyl)(2-nitrobenzyl)amino]propanamide]	8.05
CC(C(=O)NO)N(Cc1ccccc1[N+](=O)[O-])S(=O)(=O)c1cccc(NC(=O)OC(C)(C)C)c1 (configuration not stated) [{3-[(1-Hydroxycarbamoyl-ethyl)-(2-nitro-benzyl)-sulfamoyl]-phenyl}-carbamic acid tert-butyl ester]	8.10
CC(C(=O)NO)N(Cc1ccccc1[N+](=O)[O-])S(=O)(=O)c1ccc(NC(=O)OC(C)(C)C)cc1 (configuration not stated) [{4-[(1-Hydroxycarbamoyl-ethyl)-(2-nitro-benzyl)-sulfamoyl]-phenyl}-carbamic acid tert-butyl ester]	8.05
COc1ccc(S(=O)(=O)N(Cc2ccccc2[N+](=O)[O-])C(C)C(=O)NO)cc1NC(=O)OC(C)(C)C (configuration not stated) [{5-[(1-Hydroxycarbamoyl-ethyl)-(2-nitro-benzyl)-sulfamoyl]-2-methoxy-phenyl}-carbamic acid tert-butyl ester]	8.05

Reference: BindingDB's records for doi:10.1021/jm010087e (The University of Western Australia, 2001)
